≈ marks a conversion by molar mass, not a printed value.

The text below walks through data of patent US9809598B2 (Merck Patent GmbH, priority 2014, dated 2017).

In series [1] the target is Tankyrase. The following applies: as reported in the cited publication / patent application; read-out: cellular assay: EC50; cited from earlier work.
The nature of series [2]: Microsomal stability (intrinsic clearance), human liver microsomes. The following applies: pH 7.4. The series is classed as in vitro ADME. From the text: (§1) Test Method Microsomal Stability (Intrinsic Clearance)
(§2) A microsomal stability assay is used to measure in vitro clearance (Clint). The assay involves measuring the rate of disappearance of a compound due to its intrinsic attitude to be metabolized (“intrinsic” meaning that the disappearance is not affected by other properties like permeability, binding etc. that play a role when quantifying in vivo clearance). The microsomal stability (intrinsic clearance, Clint) and thus metabolic stability is generally given as μl/min/mg protein. It can be visualized as the volume of solution that 1 mg of microsomes is able to clear of the compound in one minute.
(§3) A Tecan Genesis workstation (RSP 150/8) was used for to perform the microsomal incubations. Analysis was carried out using a Waters ACQUITY UPLC system coupled to an ABSciex API3000 mass spectrometer. Data analysis was performed using Assay Explorer (Symyx).
(§4) Chemicals • Potassium phosphate buffer: 0.05 M potassium phosphate buffer pH 7.4 containing 1 mM MgCl2 • NADPH (nicotinamide adenine dinucleotide phosphate): 22.5 mg NADPH-Na4 in 1.8 ml potassium phosphate buffer • Acetonitrile: 50 Vol % acetonitrile (1 volume acetonitrile, 1 volume water) • DMSO: 20 Vol % DMSO in water • Stock solution of 20 mg/ml human or mouse liver microsomes (protein)/ml in phosphate buffer
(§5) Stock solution of 10 mM compound in 100% DMSO

Series [3] has as its target T1, TNKS2 (Homo sapiens, UniProt Q9H2K2).
T1 construct: GST-tagged Tnks-2 (873-1166 aa, prepared in-house); made in house
In words: TNKS2 activity ELISA (autoparsylation assay). The series is classed as biochemical. The settings on record: GST-tagged Tnks-2 (873-1166 aa); read-out: IC50 [M] TNKS2 ELISA. An outline of the steps: (§6)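 GST-tagged TNKS1 or TNKS2 captured on glutathione plates and allowed to auto-PARsylate with biotinylated NAD with or without compound. Biotin-ADP-ribosylated enzyme detected by streptavidin-HRP and luminescence; IC50 relative to inhibitor-free reaction.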
(ELISA stands for enzyme-linked immunosorbent assay.)

Series [4] can be described thus: Solubility pH 7.4. It is filed as physicochemical. The following applies: pH 7.4, aqueous buffer.
Series [5] has as its system Tankyrases. The settings on record: read-out: EC50 [M] TNKS cellular assay; DLD1 cells, 24 hours, Axin2 increase.
Series [6] addresses T2, PARP-1 (Homo sapiens, UniProt P09874).
T2 construct: purchased Enzo Life Sciences GmbH, Lörrach, Germany
In words: PARP-1 autoparsylation assay (HTRF). It is filed as biochemical. The following applies: His-tagged Parp-1, autoparsylation HTRF. An outline of the steps:
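His-tagged enzyme auto-modifies itself using biotinylated NAD/NAD; product detected by TR-FRET between cryptate anti-His antibody and Xlent-streptavidin, as emission ratio.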
For orientation: Time-resolved FRET reads energy transfer from a long-lived donor to a nearby acceptor.

Series [7] has as its target T3, TNKS1 (Homo sapiens, UniProt O95271).
T3 construct: GST-tagged Tnks-1 (1023-1327 aa, prepared in-house); made in house
Nature of the series: TNKS1 activity ELISA (autoparsylation assay). The series is classed as biochemical. The settings on record: GST-tagged Tnks-1 (1023-1327 aa). An outline of the steps:
as §6

The nature of series [8]: Microsomal stability (intrinsic clearance), mouse liver microsomes. The settings on record: pH 7.4. The series is classed as in vitro ADME.
Text: as §1, §2, §3, §4, §5

Series [9] deals with DLD-1-cancer cells. The settings on record: Huang et al., 2009; Nature; cited from earlier work.

T2 sequence (P09874 whole entry): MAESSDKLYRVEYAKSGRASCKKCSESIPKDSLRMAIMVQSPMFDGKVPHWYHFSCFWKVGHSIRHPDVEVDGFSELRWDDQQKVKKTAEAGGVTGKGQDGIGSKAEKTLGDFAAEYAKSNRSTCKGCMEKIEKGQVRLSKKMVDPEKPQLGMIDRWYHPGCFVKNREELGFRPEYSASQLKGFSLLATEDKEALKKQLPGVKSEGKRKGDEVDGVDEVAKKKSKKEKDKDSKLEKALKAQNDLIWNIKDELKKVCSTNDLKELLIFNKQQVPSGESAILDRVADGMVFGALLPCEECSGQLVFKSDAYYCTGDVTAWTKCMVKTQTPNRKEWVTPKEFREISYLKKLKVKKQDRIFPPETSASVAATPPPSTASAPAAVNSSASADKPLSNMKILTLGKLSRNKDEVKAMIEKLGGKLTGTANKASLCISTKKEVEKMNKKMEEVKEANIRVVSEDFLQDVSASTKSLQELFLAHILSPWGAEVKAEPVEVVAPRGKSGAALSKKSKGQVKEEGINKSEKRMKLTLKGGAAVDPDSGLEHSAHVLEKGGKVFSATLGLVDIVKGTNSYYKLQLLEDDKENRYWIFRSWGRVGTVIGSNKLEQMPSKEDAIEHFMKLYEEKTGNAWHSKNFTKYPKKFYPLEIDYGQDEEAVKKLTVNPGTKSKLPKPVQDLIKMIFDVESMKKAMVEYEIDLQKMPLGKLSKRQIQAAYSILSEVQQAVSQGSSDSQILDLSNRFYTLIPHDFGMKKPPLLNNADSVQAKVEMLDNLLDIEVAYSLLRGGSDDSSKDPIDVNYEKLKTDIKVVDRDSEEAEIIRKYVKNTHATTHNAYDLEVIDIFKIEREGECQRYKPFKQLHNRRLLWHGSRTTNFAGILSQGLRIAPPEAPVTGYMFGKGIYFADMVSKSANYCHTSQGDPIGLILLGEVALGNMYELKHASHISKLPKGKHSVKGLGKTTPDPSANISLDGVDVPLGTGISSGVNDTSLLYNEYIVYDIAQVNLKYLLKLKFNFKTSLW
T1 sequence (Q9H2K2 873-1166): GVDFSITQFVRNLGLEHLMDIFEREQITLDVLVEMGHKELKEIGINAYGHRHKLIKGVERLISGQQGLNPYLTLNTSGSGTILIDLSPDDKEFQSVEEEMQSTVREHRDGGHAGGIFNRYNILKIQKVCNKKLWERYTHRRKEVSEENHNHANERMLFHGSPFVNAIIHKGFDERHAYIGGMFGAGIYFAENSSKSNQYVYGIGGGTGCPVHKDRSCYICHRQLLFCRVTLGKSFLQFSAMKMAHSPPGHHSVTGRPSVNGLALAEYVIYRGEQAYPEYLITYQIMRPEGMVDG
T3 sequence (O95271 1023-1327): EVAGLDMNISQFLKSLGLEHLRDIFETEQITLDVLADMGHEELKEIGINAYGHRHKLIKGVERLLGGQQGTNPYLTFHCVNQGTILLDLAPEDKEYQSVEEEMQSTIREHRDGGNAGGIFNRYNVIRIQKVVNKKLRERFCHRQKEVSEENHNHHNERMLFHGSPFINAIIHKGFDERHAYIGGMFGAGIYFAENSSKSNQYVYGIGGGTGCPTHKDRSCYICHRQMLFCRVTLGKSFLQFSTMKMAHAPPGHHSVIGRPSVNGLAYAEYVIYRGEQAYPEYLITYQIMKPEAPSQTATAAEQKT

Regarding `COc1ccc(C(=O)C2CCN(CC(=O)N(Cc3nc4c(c(=O)[nH]3)COCC4)CC3CC3)CC2)cc1`, the EC50 in series [1] was 35 nM.

On to `COc1ccccc1NC(=O)c1ccc(NC(=O)CCc2nc3ccccc3c(=O)[nH]2)cc1`, for which, in [1], the EC50 is 320 nM.

On to `Cc1ccc2c(=O)[nH]c(CCCC(=O)N3CCC(C(=O)c4cnn(C)c4)CC3)nn12` [Compound C157, 7-Methyl-2-{4-[4-(1-methyl-1H-pyrazole-4-carbonyl)-piperidin-1-yl]-4-oxo-butyl}-3H-pyrrolo[2,1-f][1,2,4]triazin-4-one], for which the intrinsic metabolic clearance (microsomal CLint) in [2] was 22 µL/min/mg; in series [8], 46 µL/min/mg. For the same compound, the IC50 in series [3] is 2.6e-10 M; in series [6], 860 nM; in series [7], 0.31 nM. Also, the concentration in solution in series [4] (solubility) came to 272 µg/mL (≈ 663 µM). In addition, in series [5], the EC50 amounted to 2.7e-09 M.

As for `Cn1cc(C(=O)C2CCN(C(=O)CCCc3nn4cc(F)cc4c(=O)[nH]3)CC2)cn1` [Compound C179, 6-Fluoro-2-{4-[4-(1-methyl-1H-pyrazole-4-carbonyl)-piperidin-1-yl]-4-oxo-butyl}-3H-pyrrolo[2,1-f][1,2,4]triazin-4-one], the results for the microsomal CLint in series [2] and in series [8] were 11 µL/min/mg and 29 µL/min/mg, respectively. Besides, the IC50 in [3] worked out at 1.1e-09 M; in series [6] it was 11000 nM; in series [7], 0.52 nM. The compound also registered a solubility in [4] of 58 µg/mL (≈ 140 µM). Also, the EC50 in [5] is 1.7e-08 M.

With `COc1ccc(C(=O)C2CCN(C(=O)CCCc3nc4c(c(=O)[nH]3)COCC4)CC2)cc1C` [Compound C199, 2-{4-[4-(4-Methoxy-3-methyl-benzoyl)-piperidin-1-yl]-4-oxo-butyl}-3,5,7,8-tetrahydro-pyrano[4,3-d]pyrimidin-4-one], the microsomal CLint came to 12 µL/min/mg in series [2] and 44 µL/min/mg in [8]. Further, the IC50 in series [3] came to 2.2e-10 M; in series [6], 2200 nM; in series [7] it was 0.27 nM. Further, the solubility in series [4] came to 585 µg/mL (≈ 1290 µM). In series [5], the half-maximal effective concentration (EC50) was found to be 3.3e-09 M.

For the compound `Cn1cc(C(=O)C2CCN(C(=O)CCCc3cn4c(F)ccc4c(=O)[nH]3)CC2)cn1` [Compound C208, 6-Fluoro-3-{4-[4-(1-methyl-1H-pyrazole-4-carbonyl)-piperidin-1-yl]-4-oxo-butyl}-2H-pyrrolo[1,2-a]pyrazin-1-one], the figures for the microsomal CLint in [2] and in [8] were less than 10 µL/min/mg and 26 µL/min/mg, respectively. Further, the IC50 in [3] was determined as 2.3e-10 M; in series [6], 6000 nM; in series [7], 0.25 nM. Also, the solubility in [4] was 101 µg/mL (≈ 244 µM). The EC50 in [5] is 5.2e-09 M.

`CCn1cc(C(=O)C2CCN(C(=O)CCCc3nn4cccc4c(=O)[nH]3)CC2)cn1` [Compound C214, 2-{4-[4-(1-Ethyl-1H-pyrazole-4-carbonyl)-piperidin-1-yl]-4-oxo-butyl}-3H-pyrrolo[2,1-f][1,2,4]triazin-4-one]: the microsomal CLint came to 21 µL/min/mg in [2] and 41 µL/min/mg in [8]. The IC50 is 1.3e-09 M in series [3], 8500 nM in series [6] and 2.2 nM in series [7]. This compound also came in with a solubility in series [4] of 394 µg/mL (≈ 960 µM). Moreover, the concentration for a half-maximal effect (EC50) in series [5] was 1.5e-08 M.

In the case of `Oc1nc(-c2ccc(C(F)(F)F)cc2)nc2c1CSCC2` [XAV939], the “growth of DLD-1-cancer cells” value in series [9] was “inhibits growth”.

One may read the EC50 as the midpoint of the concentration-response curve. One may read the microsomal CLint as a measure of how fast metabolising enzymes remove a compound, apart from limits set by blood flow. One may read the IC50 as the midpoint of a concentration-inhibition curve. The term solubility denotes the dissolved amount per volume that the medium holds.
